Experimental data: publication PMC5573328, “Cyclooxygenase-2 contributes to oxidopamine-mediated neuronal inflammation and injury via the prostaglandin E2 receptor EP2 subtype” (Scientific Reports, 2017)

Molecular target: T1, PGE2 receptor EP2 subtype (Mus musculus, UniProt Q62053)
T1 construct: gene Ptger2; endogenous receptor in Neuro-2a cells
Assay: TR-FRET cAMP assay in Neuro-2a cells (agonist dose-response)
Format: cell-based

T1 sequence (Q62053 whole entry): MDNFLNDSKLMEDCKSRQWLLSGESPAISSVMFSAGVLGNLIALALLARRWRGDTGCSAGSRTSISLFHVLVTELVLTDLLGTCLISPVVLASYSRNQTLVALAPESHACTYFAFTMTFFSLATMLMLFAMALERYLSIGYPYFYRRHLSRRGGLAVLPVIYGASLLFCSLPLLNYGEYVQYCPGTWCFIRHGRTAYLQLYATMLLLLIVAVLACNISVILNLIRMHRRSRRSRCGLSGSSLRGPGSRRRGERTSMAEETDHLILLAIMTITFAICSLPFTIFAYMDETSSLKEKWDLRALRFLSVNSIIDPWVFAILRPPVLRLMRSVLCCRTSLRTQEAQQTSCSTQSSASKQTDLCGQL

SMILES: CCCC1([C@H](O)C/C=C/[C@H]2[C@H](O)CC(=O)[C@@H]2CCCCCCC(=O)OC)CCC1 [butaprost]
- EC50: 80 nM
